Source: US12090140B2, “Non-sedating dexmedetomidine treatment regimens” (priority 2023, dated 2024)
Where two headings read alike, the source gives them in different places.

Experiments:
[1] = human, in vivo, iv
Description: Mean infusion rate is 0.36 mcg/kg/hr with the maximum rate ranging from about 0.2 mcg/kg/hr to about 0.6 mcg/kg/hr (see FIGS. 18 to 20).

[2] = system: bacterial reverse mutation; details: in vitro Ames bacterial reverse mutation test; cited from earlier work
[3] = system: pregnant rats and offspring; details: rat, cited from earlier work
[4] = system: agitation in subjects suffering from schizophrenia
pregnant rabbits = details: rabbit; intravenous up to 96 mcg/kg/day, GD 6 to 18; cited from earlier work
mouse lymphoma cell = details: mammalian mouse lymphoma cell forward mutation assay; cited from earlier work
male or female rats = details: daily subcutaneous injections up to 54 mcg/kg; cited from earlier work
[5] = cited from earlier work
[6] = system: bone marrow of CD-1 and NMRI mice; details: cited from earlier work
[7] = system: adult patients and healthy adult subjects; details: loading IV bolus of undiluted drug, 19.4 mcg/kg; one patient; cited from earlier work
[8] = cited from earlier work; remark: listed apart in the source
plasma proteins = details: cited from earlier work
pregnant rats = details: rat, cited from earlier work
human lymphocyte = details: cited from earlier work
cytochrome P450 = details: human liver microsomes; cited from earlier work
[9] = radiolabeled, intravenous, after nine days

For `Cc1cccc([C@H](C)c2cnc[nH]2)c1C` [Dexmedetomidine, (+) 4-(S)-[1-(2,3-dimethylphenyl)ethyl]-1H-imidazole], the “Time to reach Cmax” value [1] is listed as 15 to 105 min, the Mutagenicity [2] is listed as “not mutagenic” and the “Developmental findings when first generation offspring were mated” value ([3]; 32 mcg/kg/day) is listed as “Decreased viability of second generation offspring and an increase in early implantation loss along with delayed motor development”. The Developmental findings ([3]; subcutaneous 8 mcg/kg/day, GD 16 to PND 25) was “Reduced pup and adult offspring weights and grip strength”, the PEC value ([4]; Patient 1 (treatment arm), 0 min after infusion start) was 9 and the PEC value ([4]; Patient 1 (treatment arm), 15 min after infusion start) was 5. The PEC value ([4]; Patient 2 (treatment arm), 0 min after infusion start) was 16, the PEC value ([4]; Patient 2 (treatment arm), 15 min after infusion start) was 13 and the PEC value ([4]; Patient 2 (treatment arm), 30 min after infusion start) was 12. The PEC value ([4]; Patient 2 (treatment arm), 45 min after infusion start) was 11, the PEC value ([4]; Patient 2 (treatment arm), 60 min after infusion start) was 9 and the PEC value ([4]; Patient 2 (treatment arm), 75 min after infusion start) was 7. It also gave a PEC value ([4]; Patient 3 (treatment arm), 0 min after infusion start) of 12, a PEC value ([4]; Patient 3 (treatment arm), 15 min after infusion start) of 12 and a PEC value ([4]; Patient 3 (treatment arm), 30 min after infusion start) of 10. For the same compound, the PEC value ([4]; Patient 3 (treatment arm), 45 min after infusion start) was 7, the PEC value ([4]; Patient 3 (treatment arm), 60 min after infusion start) was 6 and the PEC value ([4]; Patient 4 (treatment arm), 0 min after infusion start) was 9. For the same compound, the PEC value ([4]; Patient 4 (treatment arm), 15 min after infusion start) was 9, the PEC value ([4]; Patient 4 (treatment arm), 30 min after infusion start) was 8 and the PEC value ([4]; Patient 4 (treatment arm), 45 min after infusion start) was 8. For the same compound, the PEC value ([4]; Patient 4 (treatment arm), 60 min after infusion start) was 7, the PEC value ([4]; Patient 4 (treatment arm), 75 min after infusion start) was 7 and the PEC value ([4]; Patient 4 (treatment arm), 90 min after infusion start) was 7. For the same compound, the PEC value ([4]; Patient 4 (treatment arm), 120 min after infusion start) was 7, the PEC value ([4]; Patient 4 (treatment arm), […] after infusion start) was 7 and the PEC value ([4]; Patient 11 (treatment arm), 0 min after infusion start) was 13. The PEC value ([4]; Patient 11 (treatment arm), 15 min after infusion start) was 13, the PEC value ([4]; Patient 11 (treatment arm), 30 min after infusion start) was 11 and the PEC value ([4]; Patient 11 (treatment arm), 45 min after infusion start) was 9. For the same compound, the PEC value ([4]; Patient 11 (treatment arm), 60 min after infusion start) was 9, the PEC value ([4]; Patient 11 (treatment arm), 75 min after infusion start) was 7 and the PEC value ([4]; Patient 12 (treatment arm), 0 min after infusion start) was 13. The PEC value ([4]; Patient 12 (treatment arm), 15 min after infusion start) was 13, the PEC value ([4]; Patient 12 (treatment arm), 30 min after infusion start) was 13 and the PEC value ([4]; Patient 12 (treatment arm), 45 min after infusion start) was 10. The PEC value ([4]; Patient 12 (treatment arm), 60 min after infusion start) was 10, the PEC value ([4]; Patient 12 (treatment arm), 75 min after infusion start) was 8 and the PEC value ([4]; Patient 12 (treatment arm), 90 min after infusion start) was 6. For the same compound, the PEC value ([4]; Patient 12 (treatment arm), […] after infusion start) was 5, the PEC value ([4]; Patient 14 (treatment arm), 0 min after infusion start) was 10 and the PEC value ([4]; Patient 14 (treatment arm), 15 min after infusion start) was 9. It also gave a PEC value ([4]; Patient 14 (treatment arm), 30 min after infusion start) of 6, a PEC value ([4]; Patient 14 (treatment arm), 45 min after infusion start) of 6 and a PEC value ([4]; Patient 14 (treatment arm), 60 min after infusion start) of 5. The PEC value ([4]; Patient 14 (treatment arm), 75 min after infusion start) was 5, the PEC value ([4]; Patient 16 (treatment arm), 0 min after infusion start) was 10 and the PEC value ([4]; Patient 16 (treatment arm), 15 min after infusion start) was 9. The PEC value ([4]; Patient 16 (treatment arm), 30 min after infusion start) was 6, the PEC value ([4]; Patient 16 (treatment arm), 45 min after infusion start) was 6 and the PEC value ([4]; Patient 16 (treatment arm), 60 min after infusion start) was 7. It also gave a PEC value ([4]; Patient 16 (treatment arm), 75 min after infusion start) of 5, a PEC value ([4]; Patient 17 (treatment arm), 0 min after infusion start) of 10 and a PEC value ([4]; Patient 17 (treatment arm), 15 min after infusion start) of 8. The PEC value ([4]; Patient 17 (treatment arm), 30 min after infusion start) was 7, the PEC value ([4]; Patient 17 (treatment arm), 45 min after infusion start) was 5 and the “Malformation or embryo-fetal toxicity” value (pregnant rabbits) was “No malformation or embryo-fetal toxicity”. The Mutagenicity (mouse lymphoma cell) was “not mutagenic”, the Fertility (male or female rats) was “not affected” and the Placental transfer ([5]; available data in humans) was “crosses the placenta”. For the same compound, the “Presence in human milk” value ([5]; following intravenous administration, published literature) was “presence of dexmedetomidine in human milk”, the Clastogenicity ([6]; CD-1 mice) was “not clastogenic” and the Clastogenicity ([6]; NMRI mice) was “some evidence for clastogenicity”. For the same compound, the Effects of overdose [7] was “cardiac arrest”, the “Pharmacokinetics (Cmax, Tmax, AUC, t½, CL, and V) in renal impairment versus normal renal function” value ([8]; creatinine clearance <30 mL/minute) was “not significantly different” and the Extent of biotransformation ([8]; direct glucuronidation and cytochrome P450 (primarily CYP2A6)) was “almost complete biotransformation”. The Clearance ([8]; intravenous administration) was “approximately 39 L/h”, the “Steady-state volume of distribution (Vss)” value ([8]; intravenous administration) was “approximately 118 liters” and the “Radioactivity recovered in the feces” value [8, 9] was 4%. The “Radioactivity recovered in the urine” value [8, 9] was 95%, the “Aliphatic hydroxylation products, share of the dose in urine” value ([8]; radiolabeled, intravenous) was “approximately 14%” and the “N-methylation products, share of the dose in urine” value ([8]; radiolabeled, intravenous) was “approximately 18%”. The “Products of N-glucuronidation, share of cumulative urinary excretion” value ([8]; radiolabeled, intravenous) was “approximately 34%”, the “Share of urinary radioactivity excreted within 24 hours after the infusion” value ([8]; radiolabeled, intravenous) was “Approximately 85%” and the “Unchanged drug in the urine” value ([8]; radiolabeled, intravenous) was “No unchanged dexmedetomidine was detected”. The “Urinary metabolites not identified” value ([8]; radiolabeled, intravenous) was “Approximately 28%”, the “Clearance in hepatic impairment (Child-Pugh Class A, B, or C)” value ([8]; versus normal hepatic function) was “decreased” and the “Fraction bound to plasma proteins in hepatic impairment versus healthy subjects” value (plasma proteins) was “significantly decreased”. For the same compound, the Average protein binding (plasma proteins; plasma of healthy male and female subjects) was 94%, the Malformations (pregnant rats; any dose level) was “No malformations” and the Embryo-fetal findings (pregnant rats; subcutaneous 20 mcg/kg/day) was “No embryo-fetal toxicity”. For the same compound, the Embryo-fetal findings (pregnant rats; subcutaneous 200 mcg/kg/day, GD 5 to 16, with maternal toxicity) was “Increased post-implantation losses and reduced live pups”, the Clastogenicity (human lymphocyte; absence or presence of human liver S9 metabolic activation) was “not clastogenic” and the Clastogenicity (human lymphocyte; presence of rat liver S9 metabolic activation) was “weak clastogenic response”. The “Cytochrome P450 mediated drug interactions” value (cytochrome P450) was “no evidence of cytochrome P450 mediated drug interactions”.
